In PubChem BioAssay (NCI):
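GI50 = concentration required for 50% inhibition of growth. TGI: total growth inhibition.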

Legend:
Assay in all cases: growth of human tumour cells (NCI), 384-well format
[1] = system: HCT-15 colon
[2] = system: DU-145 prostate
[3] = system: UACC-257 melanoma
[4] = system: SK-OV-3 ovarian
[5] = system: SF-268 CNS
[6] = system: NCI-H226 lung
[7] = system: MDA-MB-435 melanoma
[8] = system: RPMI-8226 leukemia
[9] = system: NCI/ADR-RES ovarian
[10] = system: PC-3 prostate
[11] = system: NCI-H23 lung
[12] = system: MOLT-4 leukemia
[13] = system: SW-620 colon
[14] = system: HOP-92 NSCLC
[15] = system: HOP-62 NSCLC
[16] = system: NCI-H522 lung
[17] = system: SF-539 CNS
[18] = system: UO-31 renal
[19] = system: MALME-3M melanoma
[20] = system: NCI-H460 NSCLC
[21] = system: NCI-H322M lung
[22] = system: CCRF-CEM leukemia
[23] = system: MDA-MB-231 breast
[24] = system: SF-295 CNS
[25] = system: OVCAR-3 ovarian
[26] = system: SN12C renal
[27] = system: HT29 colon
[28] = system: OVCAR-5 ovarian
[29] = system: SK-MEL-28 melanoma

Which GI50 [1] does the source give for `CCC[C@H](Nc1nc(-c2ccc(NC(=O)NCC)c(OC)c2)ncc1C)c1cccnc1` here?
The GI50 was 24 nM.

And the TGI [1]?
Its TGI is 68.3 nM.

What about the GI50 [2] of the same molecule?
Its GI50 is 30.7 nM.

What about the TGI [2] of the same molecule?
The TGI was 91.6 nM.

What about the GI50 [3] of the same molecule?
The GI50 was 74.5 nM.

What about the TGI [3] of the same molecule?
Its TGI is 16400 nM.

What about the GI50 [4] of the same molecule?
Its GI50 is 34.8 nM.

And the TGI [4]?
The TGI was 1500 nM.

What about the GI50 [5] of the same molecule?
Its GI50 is 27.3 nM.

And the TGI [5]?
Its TGI is 169 nM.

What about the GI50 [6] of the same molecule?
Its GI50 is 26.9 nM.

And the TGI [6]?
Its TGI is 75.3 nM.

And the GI50 [7]?
The GI50 was 19.1 nM.

And the TGI [7]?
The TGI was 38.2 nM.

And the GI50 [8]?
The GI50 was 18.2 nM.

And the TGI [8]?
Its TGI is 32.8 nM.

And the GI50 [9]?
The GI50 was 170 nM.

What about the TGI [9] of the same molecule?
Its TGI is 426 nM.

What about the GI50 [10] of the same molecule?
The GI50 was 38.5 nM.

And the TGI [10]?
The TGI was 16500 nM.

And the GI50 [11]?
Its GI50 is 20.7 nM.

What about the TGI [11] of the same molecule?
The TGI was 51.6 nM.

And the GI50 [12]?
Its GI50 is 19.7 nM.

What about the TGI [12] of the same molecule?
Its TGI is 34.2 nM.

What about the GI50 [13] of the same molecule?
The GI50 was 43.4 nM.

And the TGI [13]?
Its TGI is 16500 nM.

What about the GI50 [14] of the same molecule?
The GI50 was 30.4 nM.

What about the TGI [14] of the same molecule?
The TGI was 650 nM.

What about the GI50 [15] of the same molecule?
Its GI50 is 33.1 nM.

And the TGI [15]?
The TGI was 1180 nM.

And the GI50 [16]?
The GI50 was 17.6 nM.

What about the TGI [16] of the same molecule?
The TGI was 37.8 nM.

What about the GI50 [17] of the same molecule?
Its GI50 is 18.3 nM.

What about the TGI [17] of the same molecule?
Its TGI is 36.5 nM.

What about the GI50 [18] of the same molecule?
Its GI50 is 62.8 nM.

What about the TGI [18] of the same molecule?
Its TGI is 15300 nM.

What about the GI50 [19] of the same molecule?
The GI50 was 32 nM.

And the TGI [19]?
The TGI was 15000 nM.

And the GI50 [20]?
The GI50 was 17.8 nM.

And the TGI [20]?
The TGI was 35.4 nM.

And the GI50 [21]?
The GI50 was 40.8 nM.

What about the TGI [21] of the same molecule?
The TGI was 20600 nM.

What about the GI50 [22] of the same molecule?
The GI50 was 20 nM.

What about the TGI [22] of the same molecule?
Its TGI is 34.5 nM.

And the GI50 [23]?
Its GI50 is 45.2 nM.

What about the TGI [23] of the same molecule?
Its TGI is 17400 nM.

And the GI50 [24]?
Its GI50 is 18.5 nM.

And the TGI [24]?
Its TGI is 43.1 nM.

What about the GI50 [25] of the same molecule?
The GI50 was 19.5 nM.

And the TGI [25]?
Its TGI is 43 nM.

And the GI50 [26]?
Its GI50 is 37.9 nM.

And the TGI [26]?
Its TGI is 10500 nM.

What about the GI50 [27] of the same molecule?
The GI50 was 28.9 nM.

What about the TGI [27] of the same molecule?
Its TGI is 12600 nM.

What about the GI50 [28] of the same molecule?
The GI50 was 798 nM.

What about the TGI [28] of the same molecule?
The TGI was 84800 nM.

And the GI50 [29]?
Its GI50 is 95.6 nM.
